Results: publication PMC10455244, “Alpha-Mangostin: A Potent Inhibitor of TRPV3 and Pro-Inflammatory Cytokine Secretion in Keratinocytes” (International Journal of Molecular Sciences, 2023)

What was measured:
[1] = tested on: HEK 293T cells expressing the WT TRPV3; test: in vitro; assay type: cell-based, human; conditions: 24 h
TRPV4 = biological target: T1, TRPV4 (Homo sapiens, UniProt Q9HBA0); test: Whole-cell patch-clamp, GSK101-activated TRPV4 current in transfected HEK 293T cells; assay type: cell-based
T1 construct: host or cells: HEK 293T (transient transfection)
Experimental: Next, we examined the impact of alpha-mangostin on other TRP channels. TRPV4- and TRPA1 trasfected HEK 293T were activated using 300 nM GSK-1016790A (GSK101) and 100 µM allyl isothiocyanate (AITC), respectively. […] The dose–response curves were obtained by applying various concentrations of alpha-mangostin (Figure 2C).
Figure 2 Alpha-mangostin (α-MG) inhibited the TRPV3 current more effectively than other TRP channels. (A) Representative I–V curves from whole-cell recordings illustrate the inhibitory effect of 0.3 µM alpha-mangostin on TRPV4 and TRPA1 channels (GSK101: GSK-1016790A, a TRPV4 agonist; RR: ruthenium red, a TRP inhibitor; AITC: allyl isothiocyanate, a TRPA1 agonist; A967: A-967079, a TRPA1 inhibitor). Currents were elicited with ramp pulses from −100 to +100 mV over 1 s, which were repetitively applied every 20 s; the holding potential was set at 0 mV. (B) Summary of the inhibition percentage after 0.3 µM alpha-mangostin treatment at −100 mV. […]
In the whole-cell configuration, voltage ramps from −100 to +100 mV over 1 s were applied every 20 s and the holding potential was set at 0 mV. Sampling at 10 kHz and low-pass filtering at 5 kHz (w-c) were applied for all recorded currents. Recorded data were analyzed using Clampfit ver. […]

IL-8 = test: ELISA, carvacrol-induced IL-8 release in NHEK; assay type: cell-based, human; conditions: 1 µM with 300 µM carvacrol, 24 h
Source text: Constitutive activation of TRPV3 due to continuous stimulation or the presence of Olmsted mutations causes noticeable skin inflammation due to the increased secretion of pro-inflammatory cytokines from the keratinocytes. Besides, in atopic dermatitis (AD), cytokine release from keratinocytes contributes to the inflammatory environment, which drives many characteristic AD symptoms. Therefore, we determined the effect of TRPV3 activation on cytokine release instead of TRPV3 expression and evaluated whether alpha-mangostin suppressed TRPV3-mediated cytokine secretion in normal human keratinocytes. The levels of secreted cytokines (interleukin (IL)-6, IL-8, and tumor necrosis factor-alpha (TNF-α)) were measured using enzyme-linked Immunosorbent assay (ELISA) kits due to their high sensitivity and quantitation ability. The cells were induced with 300 µM carvacrol, with or without 1 µM alpha-mangostin, and 10 µM 74a.
Figure 5 Alpha-mangostin (α-MG) inhibited carvacrol-induced cytokine release in NHEK cells and rescued carvacrol-induced cell death. (A) Alpha-mangostin inhibited the carvacrol-induced release of IL-8 and IL-6 in NHEK. Cells were induced by 300 µM carvacrol with or without either 1 µM alpha-mangostin or 10 µM 74a for 24 h before the ELISA assay. (B) Alpha-mangostin reduced cell death caused by carvacrol in human keratinocytes. […]

T1 sequence (Q9HBA0 whole entry, species assumed): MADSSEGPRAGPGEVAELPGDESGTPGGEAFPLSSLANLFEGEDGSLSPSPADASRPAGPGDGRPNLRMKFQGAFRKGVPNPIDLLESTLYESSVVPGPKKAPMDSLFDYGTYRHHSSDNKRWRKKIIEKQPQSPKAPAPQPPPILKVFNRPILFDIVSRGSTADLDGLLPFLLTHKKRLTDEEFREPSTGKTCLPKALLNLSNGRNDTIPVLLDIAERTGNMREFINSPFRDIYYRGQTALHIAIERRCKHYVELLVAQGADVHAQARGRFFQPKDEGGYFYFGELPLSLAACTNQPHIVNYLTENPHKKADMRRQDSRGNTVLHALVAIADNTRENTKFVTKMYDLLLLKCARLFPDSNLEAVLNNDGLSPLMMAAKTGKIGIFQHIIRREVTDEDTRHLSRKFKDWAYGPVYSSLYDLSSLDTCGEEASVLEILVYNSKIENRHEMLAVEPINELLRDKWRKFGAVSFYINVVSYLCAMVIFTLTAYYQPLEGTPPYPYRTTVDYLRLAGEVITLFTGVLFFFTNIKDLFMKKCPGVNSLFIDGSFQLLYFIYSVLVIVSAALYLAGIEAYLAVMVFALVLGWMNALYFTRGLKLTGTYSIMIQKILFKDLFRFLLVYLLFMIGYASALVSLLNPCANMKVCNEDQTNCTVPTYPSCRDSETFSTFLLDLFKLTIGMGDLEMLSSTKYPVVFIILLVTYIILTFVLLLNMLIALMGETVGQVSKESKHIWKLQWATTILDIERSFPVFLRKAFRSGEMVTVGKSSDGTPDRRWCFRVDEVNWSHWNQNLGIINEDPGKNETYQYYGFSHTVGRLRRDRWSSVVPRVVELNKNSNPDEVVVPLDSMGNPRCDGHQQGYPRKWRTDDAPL

In the case of COc1c(O)cc2oc3cc(O)c(CC=C(C)C)c(O)c3c(=O)c2c1CC=C(C)C [Alpha-mangostin], the “Increase of viability of cells expressing the WT channel” value ([1]; 1 µM alone) is reported as “not statistically significant”, the “Cell viability (normalized O.D., compared with mock cells)” value ([1]; human, 1 µM) is reported as 82.07% ± 1.34 and the inhibition at 0.3 µM (TRPV4; HEK-293T, 0.3 µM, 300 nM GSK101, −100 mV, read-out: Inhibition percentage of TRPV4 current) is reported as 16.1%. For the same molecule, the IC50 (TRPV4; transfected HEK 293T, 300 nM GSK101, read-out: IC50, inhibition of TRPV4 current) was 8.47 ± 1.72 µM and the “Effect on IL-8 levels” value (IL-8) was “drastically attenuated”.
